“And” between values parts separate entries of the source, which are not always exact repeats. Identical values can stand only once.
What was measured:
[1] = test system: adjuvant-induced arthritis (heat-killed Mycobacterium butyricum), hind paw weight increase; test: Adjuvant-Induced Arthritis Assay "AI"; format: in vivo; details: rat, oral, day 18
Description: Anti-inflammatory activity is determined by the Adjuvant-Induced Arthritis ("AI") Assay, as is well accepted in the art. A modification of the assay described by Pearson, et al., supra., is performed as follows: Female Hla:(SD) BR rats weighing 160-180 g are randomly distributed to treatment groups of 12 animals, and given food and water ad libitum. Test materials are prepared fresh weekly as suspensions in carboxymethyl cellulose. The test animals are orally dosed with the suspensions in volumes of 1 ml twice per day Monday through Friday, and with 2 ml once per day on Saturdays and Sundays. […] At time 0, rats are injected intradermally in the proximal quarter of the tail with 0.1 ml of a mineral oil suspension of heat-killed Mycobacterium butyricum (Difco) at a concentration of 10 mg/ml. On day 18 the intensity of swelling in the four paws and tail is estimated visually and scored (0-4 for paws, 0-3 for tail) such that the total maximum score, indicating intense swelling of all four paws and tail, is 19. The animals are then sacrificed; the hind paws of each animal are removed and weighed. The percent inhibition is calculated by comparing the weight increase of the hind paws of the test animals versus the control animals.

[2] = test system: carrageenan-induced rat paw inflammation; test: Carrageenan-Induced Rat Paw Inflammation Assay "CI"; format: in vivo; details: oral
Description: Anti-inflammatory activity is determined by the Carrageenan-Induced Rat Paw Inflammation "CI" Assay, as is well accepted in the art. A modification of the assay described by Winter, et al., supra., is performed as follows:
Female albino rats (Sim: (SD)fbr) weighing 80-90 g receive the test materials orally in 1 ml aqueous solution at hour 0. One hour later (hr 1) 0.05 ml of a 1% solution (in aqueous 0.9% NaCl) of carrageenan is injected into the right hind paw to inflame the paw. The rats are sacrificed at hour 4, at which time both hind paws are removed and individually weighed. The percent increase in the weight of the inflamed paw over that of the opposite non-inflamed paw is calculated, and the results are reported according to the formula: [formula]

[3] = test system: phenylquinone-induced writhing; test: Phenylquinone-Induced Mouse Writhing Assay "PI" (cyclooxygenase-inhibition activity); format: in vivo
Description: Cyclooxygenase-inhibition activity is determined by the Phenylquinone-Induced Mouse Writhing "PI" Assay, as is well accepted in the art. A modification of the assay described by Hendershot, et al., supra., is performed as follows:
Phenylquinone solution is prepared as follows: 4 mg of phenylquinone is dissolved in 0.5 ml of absolute ethanol, after which 19.5 ml of warmed distilled water is added. When properly prepared, all of the phenylquinone solution remains in solution. The solution is used soon after preparation.
The test materials are administered in 0.2 ml of an aqueous vehicle at hour 0 to groups of eight male Swiss-Webster (Simonsen) mice weighing about 18-20 g. At either twenty (20 ) minutes or one hundred twenty (120) minutes later, 0.25 ml of a 0.02% solution of phenylquinone is injected into each animal, to induce writhing. The animals are then observed for the next ten (10) minutes for writhing responses, and the number of writhes per animal is recorded. The mean number of writhes is calculated for each treatment group and the results are expressed as percent inhibition of writhing responses relative to a control group receiving vehicle alone.

[4] = test system: arachidonic acid-induced mouse ear edema; test: Arachidonic Acid-Induced Mouse Ear Edema Assay "AAI"; format: in vivo; details: topical
Description: Topical anti-inflammatory activity is determined by the Arachidonic Acid-Induced Mouse Ear Edema "AAI" Assay, as is well accepted in the art. A modification of the assay described by Young, et al., supra., is performed as follows:
The test materials are prepared as solutions in acetone and applied to the right ears of mice, in groups of eight (8), at hour 0. At hour 1, 2 mg of arachidonic acid in acetone solution is applied to the right ears of the mice to induce an inflammatory response. The left ears of these animals serves as negative controls. At hour 2 the mice are sacrificed; their ears are removed and 8 mm diameter full thickness plugs are cut from the tip of each ear. The plugs are weighed and the mean right and left plug weights are calculated for each group. The results are expressed as percent inhibition of ear plug weight increase relative to a positive control group receiving only acetone at hour 0.

[5] = test system: lipoxygenase in human polymorphonuclear leukocytes; test: Human Polymorphonuclear Leukocyte Assay "HPMN" (lipoxygenase inhibition); format: cell-based; details: dose 36.0 μg
Description: Lipoxygenase inhibition activity is determined in vitro by the Human Polymorphonuclear Leukocyte ("HPMN") Assay, as is well accepted in the art. A modification of the assay described by Radmark, et al., supra., is performed as follows:
1. Preparation of the cells: The HPMNs are prepared from 200-300 ml of heparinized blood of healthy donors not receiving any medication for at least 7 days, using Ficol-Hypaque gradients. In general, HPMNs are greater than 90% pure and their viability is assessed by dye-exclusion to be better than 95%. The cells are suspended in phosphate buffered saline containing 1.0 mM CaCl2 (PH 7.4) and 0.1% ovalbumin, and used within 30 minutes.
2. Lipoxygenase Assay: Incubations are carried out at 37° C. for 5 minutes in a total volume of 0.2 ml arachidonic acid 1-C^14 (1×10^-4 M unless otherwise indicated, and approximately 300,000 cpm) is added to a suspension of cells (ca 5×10^6) to initiate the reaction. […]
1.6 Ml of deionized water is added, vortexed, and centrifuged. […] The eluates are collected in scintillation vials and 1.0 ml aliquot from each of the two fractions are counted for radioactivity in a Packard liquid scintillation counter. From the radioactivity data thus obtained percent yields of total lipoxygenase products in blanks, controls and drug-containing tubes are calculated as well as percent inhibition by the test compounds.

[6] = Isomura et al., Chem. Pharm. Bull. 32(1): 152-165 (1984); cited from earlier work
[7] = phenylquinone 20 min after dose, 5.0 mg/kg
[8] = phenylquinone 20 min after dose, 15.0 mg/kg
[9] = phenylquinone 120 min after dose, 15.0 mg/kg

Structure (SMILES) | inhibition of hind paw weight increase ([1]; daily dose 0.4 mg/kg) [%] | inhibition of hind paw weight increase ([1]; daily dose 2.0 mg/kg) [%] | Inhibition (CI) ([2]; dose 1.0 mg/kg) [%] | Inhibition (CI) ([2]; dose 10.0 mg/kg) [%] | Inhibition (PI), writhing responses ([3]; phenylquinone 20 min after dose, 0.1 mg/kg) [%] | Inhibition (PI), writhing responses ([3]; phenylquinone 20 min after dose, 1.0 mg/kg) [%] | Inhibition (PI), writhing responses ([3]; phenylquinone 20 min after dose, 1.5 mg/kg) [%] | Inhibition (PI), writhing responses [3, 7] [%] | Inhibition (PI), writhing responses [3, 8] | Inhibition (PI), writhing responses [3, 9] [%] | Inhibition (AAI), ear plug weight increase ([4]; dose 0.5 mg/ear) [%] | Inhibition (AAI), ear plug weight increase ([4]; dose 1.0 mg/ear) [%] | Inhibition (AAI), ear plug weight increase ([4]; dose 2.0 mg/ear) | Inhibition (CI) ([2]; dose 100.0 mg/kg) [%] | Inhibition (PI), writhing responses ([3]; phenylquinone 20 min after dose, 50.0 mg/kg) | Inhibition (HPMN), total lipoxygenase products [5] [%] | anti-inflammatory activity as reported [6]
CC(C)(C)c1cc(C(=O)c2cc[nH]c2)cc(C(C)(C)C)c1O [A, 3-(3,5-di-t-butyl-4-hydroxybenzoyl)pyrrole] | 54 | 70 | 24 | 44 | 15 | 61 | 100 | 99 | 97% and 96% | 100 | 49 | 62 | 67% and 69% |  |  |  | 
CC(C)(C)c1cc(C(=O)c2ccc[nH]2)cc(C(C)(C)C)c1O [B, 2-(3,5-di-t-butyl-4-hydroxybenzoyl)pyrrole, reference compound] |  |  |  |  |  |  |  | 26 | 40% and 52% and 65% | 49 |  |  | 22% | 30 | 56% and 38% | 50 | 
Cc1[nH]ccc1-c1cc(C(C)(C)C)c(O)c(C(C)(C)C)c1 [Formula VIII] |  |  |  |  |  |  |  |  |  |  |  |  |  |  |  |  | inactive
